# Laboratory results from a melting point compilation (Tetko et al.; mined from patent text by program, amines drawn as free bases though some values may be those of a salt).
row,Compound,melting point [°C]
1,COc1cc2c(c(OC)c1)C1=C(CC2)C2=CCC(OC(C)=O)C2(C)CC1 (stereo not drawn),122 to 124
2,O=C(c1ccc(F)cc1)N1CCC[C@H](c2noc(-c3ccc(F)cc3)n2)C1,120 to 123
3,CC1(C)OC(c2ccc(S(N)(=O)=O)c(F)c2)=C(c2cc(F)cc(F)c2)C1=S,153 to 154
4,CCOC(=O)C(NC(=O)Nc1c(F)cc(F)cc1CCc1cc(C(C)(C)C)c(O)c(C(C)(C)C)c1)c1ccccc1 (stereo not drawn),162 to 164
5,CC(=O)NC[C@H]1CN(c2ccc(N3CCC(Cc4nnc(-c5ccccc5)o4)CC3)c(F)c2)C(=O)O1,199 to 200
6,CC1CCCN(c2cc3nc(C(C)(C)C)sc3cc2N)C1 (stereo not drawn),108 to 112
7,CC1(N)CN(c2c(F)cc3c(=O)c(C(=O)O)cn(-c4ccc(F)cc4)c3c2F)C1,272 to 277
8,OCc1c(C(F)(F)F)[nH]c2ccccc12,106
9,CN1CC2CC1CN2c1ccc(NC=C2C(=O)NC(=O)c3ccc(I)cc32)cc1 (stereo not drawn),210 to 211
10,CC(=O)C(C)(C)C(C=C(Cl)C(F)(F)F)OS(C)(=O)=O (stereo not drawn),50 to 52
11,CC12CCC(C1)C(C)(C)C2(S)CCN (stereo not drawn),42 to 43
12,CN1CC(C)(CCCl)Oc2ncccc2C1=S (stereo not drawn),119 to 121
13,C=C(C)C(=O)Nc1ccc(NC(=O)C(F)(F)C(F)(F)C(F)(F)F)c(O)c1,247 to 250
14,Cc1ccc(-c2cc(CO)c3[nH]c(=O)ccc3c2)c(C)n1,218 to 221
15,c1cc(CCCn2ccnc2)cc(OCc2coc(-c3cccs3)n2)c1,112 to 113
16,CC(C)(CO)c1cn2nc(NCCCN3CCC(OC(c4ccccc4)c4ccccc4)CC3)ccc2n1,105 to 108
17,COc1ccc(C(NCC(c2ccccc2)c2ccccc2)c2cccc(Nc3c(N)c(=O)c3=O)c2)cc1 (stereo not drawn),193 to 194
18,CN1C(=O)CCC2(C)c3ccc(Sc4cccc5cccnc45)cc3CCC12 (stereo not drawn),241 to 242
19,COC(=O)c1cn(-c2ccnc3ccccc23)c2cc(F)ccc12,186
20,CS(=O)(=O)c1ccc(-n2cc(C(F)(F)F)nc2-c2ccc(-c3ccco3)cc2)cc1,82 to 84
21,O=C(Oc1ccccc1)c1n[nH]c2c(=O)[nH]c3cc(Cl)ccc3c(=O)c12,265
22,CCOC(=O)c1cc2c3n(ccc-2n1)CC=N3,154 to 156

row,Compound,melting point [°C]
1,O=CN(Cn1cc(Cl)cnc1=O)c1ccccc1,200
2,CNS(=O)(=O)Cc1cc(Br)c(N)c(Br)c1,155 to 157
3,CCNc1cc(-c2c[nH]c(C)n2)ccn1,214 to 216
4,CCc1nn(-c2ccc(Cl)nn2)c(CC)c1[N+](=O)[O-],83 to 85
5,O=C1c2ccccc2C(=O)N1OCc1ccco1,145
6,Cc1cc2cccc(N)c2cn1,175
7,CCOC(=O)/C=C/c1cn(Cc2ccc(OCc3nc(-c4ccccc4)oc3C)cc2)cc1-c1ccccc1,120 to 121
8,CC(C)(O)Cn1c(N)nc2c(N)nc3c(c21)CCCC3,> 270
9,O=C(O)c1c(Cc2cc3c(cc2Cl)OCO3)c(-c2ccco2)nn1CC1CCCCC1,248
10,CC(C)c1cnc(NC(=O)Nc2cccc(I)c2)s1,90 to 92
11,Cc1cc2cc(CN3CCCCCC3)cnc2cc1NC(=O)c1ccc(-c2ccc(Cl)cc2)cc1,204
12,COc1cc(F)c(C(=O)CCl)c(OC)c1,93 to 96
13,CN1Cc2c(/C=C\Cl)ncn2-c2cccc(Cl)c2C1=O,205 to 207
14,Cc1ncc(C#N)c(Nc2ccc3[nH]ccc3c2C)c1-c1ccc(OCCN2CCN(C)CC2)cc1,183 to 184
15,Cc1nn(C)c(C(N)=O)c1Cl,101
16,N#CCON=C(C(=O)O)c1csc(NC(c2ccccc2)(c2ccccc2)c2ccccc2)n1,180
17,c1ccc(OCCSCc2nnc(-c3ccc(OCCN4CCCCCC4)cc3)o2)cc1,40
18,CC1(C)COc2ccc(C[C@@H](NC(=O)c3ccc(F)c4ccccc34)[C@@H](O)c3cccc(Cl)c3)cc21 (racemic),131 to 133
19,"CCCOC(C)c1ccc(-c2ccc(O)cc2)cc1 (single isomer, unassigned; (+))",123 to 125
20,C=CCOC(=O)Nc1c(C#N)cnn1-c1ccc(Cl)c(Cl)c1Cl,154 to 155
21,CCOC(=O)C1(C)OC(C)=C(O)C1=O (stereo not drawn),89.2 to 89.5

# Next, values leading:
row,melting point [°C],Compound
1,123,CC(C)Nc1c([N+](=O)[O-])cnn1-c1ncc(Cl)cc1Cl
2,94 to 98,O=C(Cc1ccc(-c2ccc(C(CC3CCOCC3)c3ccc(S(=O)(=O)C4CC4)cc3)[nH]2)nc1)N1CCC1 (stereo not drawn)
3,80 to 82,COCC(C)Oc1cc(-n2c(=O)cc(C(F)(F)F)n(C)c2=O)c(F)cc1Cl (stereo not drawn)
4,148 to 151,NC(=O)CCC1CN(c2ccc(C3=CCN(C=O)CC3)c(F)c2)C(=O)O1 (stereo not drawn)
5,107 to 109,CCN(CC)c1ccc(C=O)c(OCCN2CCOCC2)c1
6,116 to 118,CCC(=O)N1CCc2cc(O)c(OC)cc2C1
7,77,CCCCOc1n[nH]c(=O)n1C
8,158 to 163,O=C(O)CCc1ccc(OCCn2c(=O)sc3cc(Cc4ccccc4)ccc32)cc1
9,102 to 105,COc1ccc(C(=O)CCCCCN2CCC(CNC(=O)c3cc(Cl)c(N)cc3OC)CC2)cc1OC
10,172 to 174,CN(C)c1ccc(C(=C2SCCCS2)c2ccccc2)cc1
11,148 to 150,CC(C)=CCN1CCc2c(sc(N)c2C(=O)c2ccc(I)cc2)C1
12,61 to 63,COCCOc1cc(NC(=O)OC(C)(C)C)c(NC(=O)CC(=O)c2cccc(-n3ccnc3)c2)cc1-c1ccc(F)cc1
13,38 to 40,BrCCCCCCCCCCn1c2ccccc2c2ccccc21
14,153 to 155,CSC(C(=O)N(C)C)c1cccc(C(=O)c2ccccc2)c1N (stereo not drawn)
15,102 to 105,COc1ccc(C(=O)C2CCN(C(C)=O)CC2)cc1
16,116,COC(=O)C1(C)OCC(c2ccccc2)(c2ccccc2)CO1
17,203 to 205,NNc1cc2c(nn1)CCN(C(=O)CCCc1ccccc1)C2
18,155 to 156,COC(=O)c1c(C(=O)OC)c(-c2nccnc2C)n(NS(=O)(=O)c2ccc(C)cc2)c1C
19,72,O=C(CCc1cccc2[nH]ccc12)c1ccccc1OCC1CO1 (stereo not drawn)
20,115 to 120,COc1ccccc1NC(=O)Nc1nc(Nc2ccc3ccccc3c2)nc(N(CCC(=O)O)Cc2ccc(Cl)c(Cl)c2)n1
21,210 to 213,CC(C)(C)c1cc(CCN2CCN(CCc3ccc(CC(=O)O)cc3)CC2)cc(C(C)(C)C)c1O
22,163 to 164,O=C(Nc1ccc(F)cc1)[C@H]1CCCN(C(=O)c2ccc(F)cc2)C1
23,160 to 161,COC(=O)CCc1ccc(Sc2ccccc2C(=O)O)c([N+](=O)[O-])c1
24,68 to 71,Cc1cc(SC2=C(O)CC(CCC3CCCC3)(C3CCCC3)OC2=O)c(C(C)(C)C)cc1CO (stereo not drawn)
25,114 to 116,COc1c(C)c(N2CCN(c3ccc(F)cc3)CC2)c(C)c2c1OC(C)C2 (stereo not drawn)
26,174 to 177,O=[N+]([O-])c1ccc(-c2cc3c(Nc4ccc(Cl)cc4F)ncnc3o2)cc1
27,58 to 59,COc1cccc(CSCCNC(=O)c2c(Cl)cccc2OC)c1
28,106 to 113,CCCCCCCCCCCCCCCC(=O)Nc1c(C)cccc1C(=O)O

row,melting point [°C],Compound
1,173 to 175,Cc1cc(C(=O)N2Cc3cccn3Cc3ccccc32)ccc1C1=CCCCC1
2,166 to 167,COc1ccc(N2CCN(c3c(C)c(C)c4c(c3C)C(O)(C3CCCCC3)C(C)(C)O4)CC2)cc1 (stereo not drawn)
3,230 to 233,N#CC1=C(C#N)Sc2nc3cc([N+](=O)[O-])c([N+](=O)[O-])cc3nc2S1
4,199 to 202,CCCCCCCCCCCCCCCCNc1ccc(C(=O)NC(C)(C)C(=O)O)cc1
5,246 to 249,O=C(O)C1=Cc2ccc3ccccc3c2OC1C(F)(F)F (stereo not drawn)
6,119 to 120,CCOC(=O)c1cc2c(nc1C)C(=Cc1ccco1)CCC2
7,105 to 106,COc1cc(C2=NCCc3cc(C)ccc32)cc(OC)c1OC
8,169 to 172,COc1cc2oc(=O)c(CCN3CCN(c4ccccc4)CC3)c(C)c2cc1OC
9,285 to 288,CCCc1nn(C)c2c1N=C(c1cc(C(=O)O)ccc1OCC)NC2
10,248,OC1CSC(Oc2ccc(-c3ccncc3)nc2)C(O)C1O (stereo not drawn)
11,189 to 191,O=C(NC1C2CC3CC(C2)CC1C3)N1CCC2(C=Cc3ccccc32)CC1 (stereo not drawn)
12,47 to 49,ClCCCCSCc1ccc2ccccc2c1
13,196 to 197,CC1(C)CCC(C)(C)c2cc(C(N)C(=O)Nc3ccc(C(=O)OCc4ccccc4)cc3)ccc21 (stereo not drawn)
14,110 to 113,Cc1cccc(-c2nc(NC(=O)Cc3ccccc3)sc2-c2ccnc(NC(=O)Cc3ccccc3)n2)c1
15,122 to 127,CC(C)(C)c1ccc(CN2CCNC2=O)cc1
16,200 to 204,Cc1nnc2ncc(-c3ccccc3F)nn12
17,60,COC(=O)Cc1ccc(OCCNC(=O)C2Cc3ccccc3N2S(=O)(=O)c2ccc(-c3cccc(C(F)(F)F)c3)c(C)c2)cc1 (stereo not drawn)
18,147 to 149,CC(=O)SCC(C(=O)NC(Cc1occ2ccccc12)C(=O)O)C(F)(F)F (stereo not drawn)
19,81 to 82,CCCc1c(OCCCCC#N)ccc(C(=O)c2ccccc2O)c1O
20,108 to 110,CCNC(=N)NC(=O)Cc1cccc(OC)c1
21,130 to 131,O=C(Cc1ccncc1)Nc1cccc(-c2ccnc3c(C(=O)c4cccs4)cnn23)c1
22,131 to 136,Nc1c(-c2cc(Cl)ccc2O)nnn1-c1ccc(Cl)cc1Cl
23,220,O=C(Nc1ccccn1)Nc1cccc2c1C1CC(O)CCN1C2=O (stereo not drawn)
24,143 to 144,CC(=O)OC1C(CO)OC(NC(=O)N(CCCl)N=O)C(OC(C)=O)C1OC(C)=O (stereo not drawn)
25,162 to 168,COC(=O)c1cc2nc(-c3ccccc3)nn2cc1F
26,73.5 to 74.6,CCCCCCCCc1ccc(-c2ccc(O)c(F)c2)nc1
27,135 to 137,C=C(C)Cn1c(=O)n(C)c(=O)c2c(SCCO)n(Cc3cccc4ccccc34)nc21
